Assay results published in patent publication US12377104B1, “Methods for treating a fatty liver disease” (Madrigal Pharmaceuticals, Inc., priority 2024, dated 2025).

Tested on: adults with biopsy-confirmed NASH
Assay: MAESTRO-NASH: adverse events, serious adverse events, malignancies
[1] = 80 mg (n = 322), safety population

Description: Safety end points included adverse events, biochemical assessments, and clinical assessments. Selected serious adverse events (including deaths, cardiovascular events, and potential drug-induced liver injury) were adjudicated by independent, external event-adjudication committees whose members were unaware of the trial-group assignments.

CC(C)c1cc(Oc2c(Cl)cc(-n3nc(C#N)c(=O)[nH]c3=O)cc2Cl)n[nH]c1=O [Resmetirom, 2-(3,5-dichloro-4-((5-isopropyl-6-oxo-1,6-dihydropyridazin-3-yl)oxy)phenyl)-3,5-dioxo-2,3,4,5-tetrahydro-1,2,4-triazine-6-carbonitrile]
Adverse event leading to trial discontinuation before wk 52, number of patients (80 mg): 6
Adverse event leading to trial discontinuation during entire treatment period, number of patients (80 mg): 9
Adverse event leading to trial discontinuation during entire treatment period, percent of patients (80 mg): (2.8) percent
Arthralgia, number of patients (80 mg): 48
Arthralgia, percent of patients (80 mg): (14.9) percent
Back pain, number of patients (80 mg): 35
Back pain, percent of patients (80 mg): (10.9) percent
Cancer reported, patients (80 mg): 1.2%
Covid-19, number of patients (80 mg): 69
Covid-19, percent of patients (80 mg): (21.4) percent
Diarrhea, number of patients (80 mg): 87
Diarrhea, percent of patients (80 mg): (27.0) percent
Fatal adverse event, number of patients (80 mg): 1
Fatal adverse event, percent of patients (80 mg): (0.3) percent
Fatigue, number of patients (80 mg): 33
Fatigue, percent of patients (80 mg): (10.2) percent
Grade 1: mild, number of patients (80 mg): 73
Grade 1: mild, percent of patients (80 mg): (22.7) percent
Grade 2: moderate, number of patients (80 mg): 180
Grade 2: moderate, percent of patients (80 mg): (55.9) percent
Grade 3 or higher: severe, number of patients (80 mg): 43
Grade 3 or higher: severe, percent of patients (80 mg): (13.4) percent
Major adverse cardiovascular event, number of patients (80 mg): 1
Major adverse cardiovascular event, percent of patients (80 mg): (0.3) percent
Nausea, number of patients (80 mg): 71
Nausea, percent of patients (80 mg): (22.0) percent
Other cardiovascular event, number of patients (80 mg): 0
Pruritus, number of patients (80 mg): 26
Pruritus, percent of patients (80 mg): (8.1) percent
Urinary tract infection, number of patients (80 mg): 33
Urinary tract infection, percent of patients (80 mg): (10.2) percent
≥1 Adverse event attributed to resmetirom, number of patients (80 mg): 124
≥1 Adverse event attributed to resmetirom, percent of patients (80 mg): (38.5) percent
≥1 Adverse event, number of patients (80 mg): 296
≥1 Adverse event, percent of patients (80 mg): (91.9) percent
≥1 Serious adverse event attributed to resmetirom, number of patients (80 mg): 2
≥1 Serious adverse event attributed to resmetirom, percent of patients (80 mg): (0.6) percent
≥1 Serious adverse event, number of patients (80 mg): 35
Malignancy: Basal cell carcinoma (80 mg (N = 322)): 2 (0.6) n (%)
Malignancy: Breast carcinoma (80 mg (N = 322)): 1 (0.3) n (%)
Malignancy: Malignant melanoma (80 mg (N = 322)): 0 n (%)
Malignancy: Skin cancer (squamous cell) (80 mg (N = 322)): 1 (0.3) n (%)
Patients with any malignancy (80 mg (N = 322)): 4 (1.2) n (%)
Patients with at least one TE-SAEs (80 mg (N = 322)): 35 (10.9) n (%)
SAE: Acute Gallstone-related disorders (80 mg (N = 322)): 3 (0.9) n (%)
SAE: COVID-19 (80 mg (N = 322)): 1 (0.3) n (%)
SAE: COVID-19 pneumonia (80 mg (N = 322)): 2 (0.6) n (%)
SAE: Cardiac disorders (80 mg (N = 322)): 3 (0.9) n (%)
SAE: Gastrointestinal disorders (80 mg (N = 322)): 3 (0.9) n (%)
SAE: General disorders and administration site conditions (80 mg (N = 322)): 2 (0.6) n (%)
SAE: Infections and infestations (80 mg (N = 322)): 12 (3.7) n (%)
SAE: Injury, poisoning and procedural complications (80 mg (N = 322)): 3 (0.9) n (%)
SAE: Musculoskeletal and connective tissue disorders (80 mg (N = 322)): 7 (2.2) n (%)
SAE: Nervous system disorders (80 mg (N = 322)): 3 (0.9) n (%)
SAE: Post procedural haemorrhage (80 mg (N = 322)): 1 (0.3) n (%)
SAE: Respiratory, thoracic and mediastinal disorders (80 mg (N = 322)): 3 (0.9) n (%)
Adverse event: Abdominal distension [1]: 14 (4.3) no. (%)
Adverse event: Abdominal pain [1]: 23 (7.1) no. (%)
Adverse event: Abdominal pain upper [1]: 23 (7.1) no. (%)
Adverse event: Constipation [1]: 21 (6.5) no. (%)
Adverse event: Cough [1]: 14 (4.3) no. (%)
Adverse event: Decreased appetite [1]: 5 (1.6) no. (%)
Adverse event: Dizziness [1]: 20 (6.2) no. (%)
Adverse event: Gastrooesophageal reflux disease [1]: 16 (5.0) no. (%)
Adverse event: Headache [1]: 30 (9.3) no. (%)
Adverse event: Hypertension [1]: 16 (5.0) no. (%)
Adverse event: Muscle spasms [1]: 14 (4.3) no. (%)
Adverse event: Nasopharyngitis [1]: 14 (4.3) no. (%)
Adverse event: Pain in extremity [1]: 12 (3.7) no. (%)
Adverse event: Procedural pain [1]: 16 (5.0) no. (%)
Adverse event: Rash [1]: 12 (3.7) no. (%)
Adverse event: Sinusitis [1]: 10 (3.1) no. (%)
Adverse event: Type 2 diabetes [1]: 24 (7.5) no. (%)
Adverse event: Upper respiratory tract infection [1]: 23 (7.1) no. (%)
Adverse event: Vomiting [1]: 28 (8.7) no. (%)
Adverse event leading to trial discontinuation before wk 52, number of patients (100 mg): 22
